Source: patent US20240246963A1, “BIFUNCTIONAL COMPOUNDS AND PHARMACEUTICAL USES THEREOF” (RISEN (SUZHOU) PHARMA TECH CO., LTD., priority 2022, published 2024)

Target: T1, RAS G12D protein (Homo sapiens, UniProt P01116, G12D)
T1 construct: host or cells: Aspc-1 (AsPC-1) cells
Assay: Protein degradation study (western blot) in Aspc-1 cells
Type: cell-based
Conditions: for DC50: half-maximum degradation concentration on G12D in Aspc-1 cells
Protocol: Aspc-1 (Cobioer, CBP60546) cells in exponential growth phase were inoculated on a 6-well cell culture plate (Corning, 3516) at density of 1E6/well; and cells in the plate were cultured in a 37° C. incubator containing 5%-carbon dioxide. The next day, test compounds were dissolved in DMSO (Sigma, RNBF5902) for the preparation of a 10-mM concentration stock solution. The stock solution was diluted with complete medium (RPMI-1640 supplemented with 10% fetal bovine serum, 1% penicillin-streptomycin), yielding working solutions of various concentrations. The plate, after the addition of compounds, was placed in a 5% carbon dioxide incubator, and incubated at 37° C. for 24 hours (final DMSO concentration was 0.1%). The plate was then removed from the incubator, and the cells were washed twice with precooled PBS (Gibco, 14190250), followed by addition of 80 μL RIPA (CST, 9806S) lysis buffer (containing protease inhibitor (Invitrogen™, AM2696)) to each well. The adherent cells were scraped off with a cell scraper, and the cell lysate was transferred to a 1.5 mL centrifuge tube followed with a 30-minute incubation on ice. The lysate was then clarified with centrifugation at 12000 rpm for 10 min at 4° C. The supernatant was transferred into a new 1.5 mL centrifuge tube, and protein concentration was measured with BCA protein detection kit (Thermo Fisher, 23225). G12D protein level was assessed by western blot. A mixture of cell lysate (40 μL) and loading buffer (10 μL, 5×SDS (Beyotime, P0015L)) was denatured in a water-bath at 95° C. for 10 min. The denatured protein sample, at 30 μg/well, was loaded into a corresponding well of a 4-20% Bis-Tris gel (Kingsley, M00656). Protein samples were initially electrophoresed at 80 V for 30 minutes, followed by 120 V for 40 minutes, until the bromophenol blue strip ran to an appropriate position. After electrophoresis, iBlot2 (Life Technologies, IB21001) was used to transfer the separated samples onto PVDF film. The PVDF membrane was washed with double-distilled water and then blocked in TBST (Thermo Scientific, 28360) buffer containing 5% non-fat milk, for 2 hours. Blocked membrane was rinsed with tris-buffered saline tween-2 (Thermo Scientific, 28360, TBST) three times, 10 minutes each. Membrane was then incubated with 1:1000 diluted RAS Gi2D primary antibody (CST, cat #14429S) overnight at 4° C. Membrane was rinsed in a way described previously followed by 1 hour incubation of secondary antibody at room temperature. After washing the film for three times with TBST, ECL color developing solution was applied, and image was captured with Biorad Chemi Doc gel imager. The band gray value was quantified (Image Lab), and protein degradation level was calculated according to the following formulas:
Level of RAS G12D protein expression=(RAS G12D−compound/β-Actin)−compound/(RAS G12D−DMSO/β-Actin−DMSO)
Level of degradation (%)=(1−Rate of RAS G12D protein expression)×100
Symbols of −, +, ++, +++, ++++, +++++ indicate that the degradation level of Ras protein induced by test compounds was 10% or less, 10 to 30%, 30 to 60%, 60 to 70%, 70 to 75%, and greater than 75%, respectively. “NT” indicates not tested.
“NT” indicates not tested.

[1] = ASPC1, 24 h, 0.005 μM compound, Aspc-1 cells, 24 hours, read-out: Rate of protein degradation (%)
[2] = ASPC1, 24 h, 0.05 μM compound, Aspc-1 cells, 24 hours, read-out: Rate of protein degradation (%)

T1 sequence (P01116 1-188 isoform P01116-2 G12D): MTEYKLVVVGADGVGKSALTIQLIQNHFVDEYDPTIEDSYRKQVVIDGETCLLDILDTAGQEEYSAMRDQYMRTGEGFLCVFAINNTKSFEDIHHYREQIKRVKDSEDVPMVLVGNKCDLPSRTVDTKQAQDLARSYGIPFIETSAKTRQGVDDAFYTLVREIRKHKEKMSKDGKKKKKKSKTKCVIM

Structure (SMILES) | percent protein degradation at 0.005 µM [1] [%] | percent protein degradation at 0.05 µM [2] [%] | other results
CCc1c(F)ccc2cc(O)cc(-c3c(Cl)cc4c(N5CCC[C@]6(CCO6)C5)nc(OCC5(CN6CCC7(CC6)CC(N6CCC(c8cc9c(cc8F)c(N8CCC(=O)NC8=O)nn9C)CC6)C7)CC5)nc4c3F)c12 (atropisomer, axis not shown) [Compound 239] | 10 to 30 | ≤ 10 | –
CCc1c(F)ccc2cc(O)cc(-c3c(Cl)cc4c(N5CCC[C@]6(CCO6)C5)nc(OCC5(CN6CCC7(CC6)CC(N6CCC(c8cc9c(cc8F)c(N8CCC(=O)NC8=O)nn9C)CC6)C7)CC5)nc4c3F)c12 (atropisomer, axis not shown) [Compound 240] | – | – | Rate of protein degradation (%) (0.005 μM compound, Aspc-1 cells, 24 hours): + (10 to 30%); Rate of protein degradation (%) (0.05 μM compound, Aspc-1 cells, 24 hours): + (10 to 30%)
CCc1c(F)ccc2cc(O)cc(-c3ncc4c(N5CCC[C@@](C)(O)C5)nc(OC5CCN(CC(=O)N6CCC7(CC6)CC(N6CCC(c8ccc9c(C%10CCC(=O)NC%10=O)nn(C)c9c8)CC6)C7)CC5)nc4c3F)c12 (some centres unmarked) [Compound 194] | – | – | DC50: > 1000 nM
CCc1c(F)ccc2cc(O)cc(-c3ncc4c(N5CCC[C@@](C)(O)C5)nc(OCC5(CN6CCC7(CC6)CC(N6CC=C(c8ccc9c(c8)CN(C8CCC(=O)NC8=O)C9=O)CC6)C7)CC5)nc4c3F)c12 (some centres unmarked) [Compound 196] | – | – | DC50: 1 to 10 nM
CCc1c(F)ccc2cc(O)cc(-c3ncc4c(N5CCC[C@@](C)(O)C5)nc(OCC5(CN6CCC7(CC6)CC(N6CCC(c8ccc(NC9CCC(=O)NC9=O)cc8F)CC6)C7)CC5)nc4c3F)c12 (some centres unmarked) [Compound 197] | 30 to 60 | 60 to 70 | percent protein degradation at 0.001 µM (ASPC1, 24 h, 1 nM compound, Aspc-1 cells, 24 hours, read-out: Rate of protein degradation (%)): 10 to 30%
C#Cc1c(F)ccc2cccc(-c3ncc4c(N5CCC[C@](C)(O)C5)nc(OCC5(CN6CCC7(CC6)CC(N6CCC(c8ccc9c%10c(cccc8%10)C(=O)N9C8CCC(=O)NC8=O)CC6)C7)CC5)nc4c3F)c12 (some centres unmarked) [Compound 198] | 30 to 60 | 30 to 60 | –
CCc1c(F)ccc2cccc(-c3ncc4c(N5CCC[C@](C)(O)C5)nc(OCC5(CN6CCC7(CC6)CC(N6CCC(c8ccc9c%10c(cccc8%10)C(=O)N9C8CCC(=O)NC8=O)CC6)C7)CC5)nc4c3F)c12 (some centres unmarked) [Compound 199] | 30 to 60 | 30 to 60 | –
C#Cc1c(F)ccc2cc(O)cc(-c3ncc4c(N5CC=CCC5)nc(OCC5(CN6CCC7(CC6)CC(N6CCC(c8cc9c(cc8F)c(N8CCC(=O)NC8=O)nn9C)CC6)C7)CC5)nc4c3F)c12 [Compound 203] | 10 to 30 | – | –
C#Cc1c(F)ccc2cc(O)cc(-c3ncc4c(N5CCC=CCC5)nc(OCC5(CN6CCC7(CC6)CC(N6CCC(c8cc9c(cc8F)c(N8CCC(=O)NC8=O)nn9C)CC6)C7)CC5)nc4c3F)c12 [Compound 206] | 10 to 30 | 10 to 30 | –
CCc1c(F)ccc2cc(O)cc(-c3ncc4c(N5CCC[C@]6(CCO6)C5)nc(OCC5(CN6CCC7(CC6)CC(N6CCC(c8ccc(C(=O)NC9CCC(=O)NC9=O)c(F)c8)CC6)C7)CC5)nc4c3F)c12 (some centres unmarked) [Compound 209] | ≤ 10 | ≤ 10 | –
CCc1c(F)ccc2cc(O)cc(-c3ncc4c(N5CCC[C@]6(CCO6)C5)nc(OCC5(CN6CCC(c7ccc8c(C9CCC(=O)NC9=O)nn(C)c8c7)CC6)CC5)nc4c3F)c12 (some centres unmarked) [Compound 212] | ≤ 10 | 10 to 30 | –
CCc1c(F)ccc2cc(O)cc(-c3ncc4c(N5CCC[C@]6(CCO6)C5)nc(OCC5(CN6CCC(CN7CCC(c8ccc9c(C%10CCC(=O)NC%10=O)nn(C)c9c8)CC7)C6)CC5)nc4c3F)c12 (some centres unmarked) [Compound 215] | 10 to 30 | 30 to 60 | –
CCc1c(F)ccc2cc(O)cc(-c3ncc4c(N5CCC[C@]6(CCO6)C5)nc(OCC5(CN6CCC(N7CCC(c8ccc9c(N%10CCC(=O)NC%10=O)nn(C)c9c8)CC7)CC6)CC5)nc4c3F)c12 [Compound 218] | 10 to 30 | 30 to 60 | –
CCc1c(F)ccc2cc(O)cc(-c3ncc4c(N5CCC[C@]6(CCO6)C5)nc(OCC5(CN6CCC7(CC(N8CCC(c9cc%10c(cc9F)c(N9CCC(=O)NC9=O)nn%10C)CC8)C7)C6)CC5)nc4c3F)c12 (some centres unmarked) [Compound 219] | 30 to 60 | 60 to 70 | –
CCc1c(F)ccc2cc(O)cc(-c3ncc4c(N5CCC[C@]6(CCO6)C5)nc(OCC5(CN6CCC(C(=O)N7CCC(c8ccc9c(C%10CCC(=O)NC%10=O)nn(C)c9c8)CC7)CC6)CC5)nc4c3F)c12 (some centres unmarked) [Compound 220] | 30 to 60 | 30 to 60 | Dmax (ASPC1, G12D in Aspc-1 cells): 55%; DC50: 1 to 10 nM
CCc1c(F)ccc2cc(O)cc(-c3ncc4c(N5CCC[C@]6(CCO6)C5)nc(OCC5(CN6CCC7(CC(c8cc9c(cc8F)c(N8CCC(=O)NC8=O)nn9C)C7)C6)CC5)nc4c3F)c12 (some centres unmarked) [Compound 222] | ≤ 10 | ≤ 10 | –
CCc1c(F)ccc2cc(O)cc(-c3ncc4c(N5CCC[C@]6(CCO6)C5)nc(OCC5(CN6CCC(C(=O)N7CCC(c8cc9c(cc8F)c(N8CCC(=O)NC8=O)nn9C)CC7)CC6)CC5)nc4c3F)c12 [Compound 224] | 10 to 30 | 10 to 30 | –
CCc1c(F)ccc2cc(O)cc(-c3ncc4c(N5CCC[C@]6(CCO6)C5)nc(OCC5(CN6CCC(N7CCC(c8cc9c(cc8F)c(N8CCC(=O)NC8=O)nn9C)CC7)CC6)CC5)nc4c3F)c12 [Compound 225] | 30 to 60 | 30 to 60 | –
CCc1c(F)ccc2cc(O)cc(-c3ncc4c(N5CCC[C@]6(CCO6)C5)nc(OCC5(CN6CCC(N7CCC(c8cc9c(cc8F)c(N8CCC(=O)NC8=O)nn9C)CC7)C6)CC5)nc4c3F)c12 (some centres unmarked) [Compound 226] | 10 to 30 | 30 to 60 | –
CCc1c(F)ccc2cc(O)cc(-c3ncc4c(N5CCC[C@]6(CCO6)C5)nc(OCC5(CN6CCC7(CC6)CC(N6CCC(c8cnn(C9CCC(=O)NC9=O)c(=O)c8)CC6)C7)CC5)nc4c3F)c12 (some centres unmarked) [Compound 227] | ≤ 10 | 10 to 30 | –
CCc1c(F)ccc2cc(O)cc(-c3ncc4c(N5CCC[C@]6(CCO6)C5)nc(OCC5(CN6CCC7(CC6)CC(N6CCC(c8ccc(NC9CCC(=O)NC9=O)nc8)CC6)C7)CC5)nc4c3F)c12 (some centres unmarked) [Compound 229] | 10 to 30 | 30 to 60 | –
CCc1c(F)ccc2cc(O)cc(-c3ncc4c(N5CCC[C@]6(CCO6)C5)nc(OCC5(CN6CCC7(CC6)CC(N6CCC(c8ccc(C9CCC(=O)NC9=O)cn8)CC6)C7)CC5)nc4c3F)c12 (some centres unmarked) [Compound 230] | ≤ 10 | ≤ 10 | –
CCc1c(F)ccc2cc(O)cc(-c3ncc4c(N5CCC[C@]6(CCO6)C5)nc(OCC5(CN6CCC7(CC6)CC(N6Cc8cc9c(cc8C6)C(=O)N(C6CCC(=O)NC6=O)C9=O)C7)CC5)nc4c3F)c12 (some centres unmarked) [Compound 231] | 10 to 30 | 30 to 60 | –
CCc1c(F)ccc2cc(O)cc(-c3ccc4c(N5CCC[C@]6(CCO6)C5)nc(OCC5(CN6CCC7(CC6)CC(N6CCC(c8cc9c(cc8F)c(N8CCC(=O)NC8=O)nn9C)CC6)C7)CC5)nc4c3F)c12 [Compound 232] | 10 to 30 | 30 to 60 | –
CCc1c(F)ccc2cc(O)cc(-c3ncc4c(N5CCC[C@]6(CCO6)C5)nc(OCC5(CN6CCC7(CCC(N8Cc9cc%10c(cc9C8)C(=O)N(C8CCC(=O)NC8=O)C%10=O)CC7)CC6)CC5)nc4c3F)c12 (some centres unmarked) [Compound 233] | 10 to 30 | 30 to 60 | –
